Experiment [1] addresses T1, RXRβ (UniProt P28704).
T1 sequence (P28704 1-520): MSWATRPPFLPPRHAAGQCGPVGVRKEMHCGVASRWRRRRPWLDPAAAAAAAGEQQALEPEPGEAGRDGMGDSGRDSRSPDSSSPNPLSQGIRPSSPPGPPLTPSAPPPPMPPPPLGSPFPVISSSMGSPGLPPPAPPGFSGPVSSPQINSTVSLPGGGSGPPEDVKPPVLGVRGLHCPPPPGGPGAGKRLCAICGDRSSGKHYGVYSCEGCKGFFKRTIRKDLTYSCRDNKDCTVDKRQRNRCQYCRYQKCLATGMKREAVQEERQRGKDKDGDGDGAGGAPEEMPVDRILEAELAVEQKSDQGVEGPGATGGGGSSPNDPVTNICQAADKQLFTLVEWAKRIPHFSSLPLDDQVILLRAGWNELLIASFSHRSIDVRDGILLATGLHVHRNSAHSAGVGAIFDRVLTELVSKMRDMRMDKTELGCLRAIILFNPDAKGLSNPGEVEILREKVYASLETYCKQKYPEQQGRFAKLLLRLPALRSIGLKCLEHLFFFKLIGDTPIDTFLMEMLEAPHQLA
In words: ligand binding assay, RXRβ. The note with it: for Ki: read-out: RXR Bind Ki β; for Kd: Table 9 (Formula F), read-out: RXR β Kd. The text has this:
(§1) Specifically, one such assay is a chimeric receptor transactivation assay which tests for agonist-like activity in the R RAPE and RAR7 receptor subtypes, and which is based on work published by Feigner, P. L. and Holm, M (1989) Focus, 112 is described in detail in U.S. Pat. No. 5,455,265. The specification of U.S. Pat. No. 5,455,265 is hereby expressly incorporated by reference. A holoreceptor transactivation assay and a ligand binding assay which measure the antagonist/agonist like activity of the compounds of the invention, or their ability to bind to the several retinoid receptor subtypes, respectively, are described in published PCT Application No. WO WO93/11755 (particularly on pages 30-33 and 37-41) published on Jun. 24, 1993, the specification of which is also incorporated herein by reference. A detailed experimental procedure for holoreceptor transactivations has been described by Heyman et al. Cell 68, 397-406, (1992); Allegretto et al. J. Biol. Chem. 268, 26625-26633, and Mangelsdorf et al. The Retinoids: Biology, Chemistry and Medicine, pp 319-349, Raven Press Ltd., New York, which are expressly incorporated herein by reference. The results obtained in this assay are expressed in EC50 numbers, as they are also in the chimeric receptor transactivation assay. The results of the ligand binding assay are expressed in Ki numbers. (See Cheng et al. Biochemical Pharmacology Vol. 22 pp 3099-3108, expressly incorporated herein by reference.)
(§2) Generally speaking, in the tables disclosing the results of transactivation and binding assays the numbers in parentheses indicate efficacy as a percentage compared to the standard compound, (2E,4E,1′S,2′S)-3-methyl-5-[2′-methyl-2′-(5,5,8,8-tetramethyl-5,6,7,8-tetrahydro-naphthalen-2-yl)cyclopropyl]-penta-2,4-dienoic acid and the other numbers indicate the measured EC50 and K; in nanomolar concentration.

Experiment [2] addresses T2, RARα (Homo sapiens, UniProt P10276).
T2 sequence (P10276 1-462): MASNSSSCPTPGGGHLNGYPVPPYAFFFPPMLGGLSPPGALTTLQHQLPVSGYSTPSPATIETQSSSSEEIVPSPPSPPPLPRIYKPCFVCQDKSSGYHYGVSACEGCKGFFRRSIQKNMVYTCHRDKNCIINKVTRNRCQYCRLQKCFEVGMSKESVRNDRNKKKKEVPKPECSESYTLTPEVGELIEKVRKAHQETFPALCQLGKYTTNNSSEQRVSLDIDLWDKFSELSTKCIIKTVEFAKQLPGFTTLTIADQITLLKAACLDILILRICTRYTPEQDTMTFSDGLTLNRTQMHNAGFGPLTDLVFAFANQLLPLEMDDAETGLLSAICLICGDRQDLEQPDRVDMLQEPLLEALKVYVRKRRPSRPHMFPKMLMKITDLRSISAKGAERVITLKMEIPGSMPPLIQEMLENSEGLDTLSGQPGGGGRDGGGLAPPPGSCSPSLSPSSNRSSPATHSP
In words: ligand binding assay, RARα. The note with it: for Ki: read-out: RAR Bind. Ki α; for Kd: Table 9 (Formula F), read-out: RAR α Kd.
Source text: as §1, §2

For experiment [3], the target named is T3, RARβ (Homo sapiens, UniProt P10826).
T3 sequence (P10826 1-455): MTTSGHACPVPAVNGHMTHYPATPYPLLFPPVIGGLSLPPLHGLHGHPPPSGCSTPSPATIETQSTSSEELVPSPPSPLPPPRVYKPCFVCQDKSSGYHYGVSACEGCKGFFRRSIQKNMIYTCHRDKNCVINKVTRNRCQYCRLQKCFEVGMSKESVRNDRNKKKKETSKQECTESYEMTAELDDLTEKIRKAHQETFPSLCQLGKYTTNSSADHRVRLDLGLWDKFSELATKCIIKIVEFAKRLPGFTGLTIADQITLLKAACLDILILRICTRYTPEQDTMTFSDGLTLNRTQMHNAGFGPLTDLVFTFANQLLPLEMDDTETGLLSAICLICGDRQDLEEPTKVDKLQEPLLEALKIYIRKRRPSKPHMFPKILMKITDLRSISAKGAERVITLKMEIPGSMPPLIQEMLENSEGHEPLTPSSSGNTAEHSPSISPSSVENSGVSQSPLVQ
Put plainly: ligand binding assay, RARβ. The note with it: for Ki: read-out: RAR Bind. Ki β; for Kd: Table 9 (Formula F), read-out: RAR β Kd.
Source text: as §1, §2

Experiment [4] has as its target T4, RXRα (Homo sapiens, UniProt P19793).
T4 construct: expressed in transfected cells
T4 sequence (P19793 1-462): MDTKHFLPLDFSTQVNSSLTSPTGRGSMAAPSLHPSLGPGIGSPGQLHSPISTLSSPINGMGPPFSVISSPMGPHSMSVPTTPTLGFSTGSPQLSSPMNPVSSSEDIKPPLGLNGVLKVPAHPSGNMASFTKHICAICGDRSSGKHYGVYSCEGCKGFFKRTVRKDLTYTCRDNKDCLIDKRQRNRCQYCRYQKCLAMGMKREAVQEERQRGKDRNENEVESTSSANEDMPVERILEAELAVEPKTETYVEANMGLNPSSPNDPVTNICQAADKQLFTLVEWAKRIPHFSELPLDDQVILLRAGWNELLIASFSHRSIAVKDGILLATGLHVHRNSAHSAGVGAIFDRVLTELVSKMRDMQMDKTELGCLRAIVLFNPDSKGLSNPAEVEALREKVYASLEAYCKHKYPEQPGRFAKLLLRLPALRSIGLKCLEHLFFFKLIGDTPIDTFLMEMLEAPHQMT
Put plainly: ligand binding assay, RXRα. The note with it: for Ki: read-out: RXR Bind Ki α; for Kd: Table 9 (Formula F), read-out: RXR α Kd.
Source text: as §1, §2

Experiment [5] concerns the target T5, RARγ (Homo sapiens, UniProt P13631).
T5 sequence (P13631 1-454): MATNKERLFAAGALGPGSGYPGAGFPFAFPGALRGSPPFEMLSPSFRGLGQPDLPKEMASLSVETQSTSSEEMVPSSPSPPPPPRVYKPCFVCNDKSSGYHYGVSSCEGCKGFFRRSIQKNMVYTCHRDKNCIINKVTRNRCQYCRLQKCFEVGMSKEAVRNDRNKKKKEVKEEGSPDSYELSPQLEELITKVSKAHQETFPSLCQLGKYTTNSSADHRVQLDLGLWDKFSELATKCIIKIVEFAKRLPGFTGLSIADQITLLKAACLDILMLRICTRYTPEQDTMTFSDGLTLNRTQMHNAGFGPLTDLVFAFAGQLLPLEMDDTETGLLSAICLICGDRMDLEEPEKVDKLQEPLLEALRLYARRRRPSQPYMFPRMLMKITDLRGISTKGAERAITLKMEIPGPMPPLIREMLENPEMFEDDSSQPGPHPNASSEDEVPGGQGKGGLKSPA
Put plainly: ligand binding assay, RARγ. The conditions noted are these: for Ki: read-out: RAR Bind. Ki γ; for Kd: Table 9 (Formula F), read-out: RAR γ Kd.
Source text: as §1, §2

Experiment [6] has as its target T4, RXRα. Put plainly: holoreceptor transactivation assay, RXRα. It is filed as cell-based.
Source text: as §1
(§3) Efficacy in a transactivation assay is expressed as a percentage of the maximum potency attained by the compound compared to a standard which, in this case, is the compound named (2E,4E,1′S,2′S)-3-methyl-5-[2′-methyl-2′-(5,5,8,8-tetramethyl-5,6,7,8-tetrahydro-naphthalen-2-yl)-cyclopropyl]-penta-2,4-dienoic acid. This standard compound is described in U.S. Pat. No. 6,114,533.
(§4) The specification of this application for patent is organized in several sections in accordance with structural Formulas A through F each of which discloses a group of preferred compounds within the scope of the invention. Tables that disclose the activity of certain exemplary compounds of the invention in the above-described RXR receptor transactivation and binding assays are found in the corresponding sections. […] The transactivation data pertaining to the activation of RXR receptors were obtained in the holoreceptor assay.
as §2

Experiment [7] concerns the target T1, RXRβ. In words: holoreceptor transactivation assay, RXRβ. It counts as cell-based.
Source text: as §1, §3, §4, §2

Regarding `CCOc1cc2c(cc1\C(C)=C(F)/C=C/C(C)=C/C(=O)O)C(C(C)C)=CC(C)(C)O2` [Compound 124, (2E,4E,6E)-7-(7-Ethoxy-4-isopropyl-2,2-dimethyl-2H-Chromen-6-yl)-6-fluoro-3-methyl-octa-2.46-trienoic acid], the Ki (as a rule, a measure of affinity in units of concentration, obtained from inhibition or displacement) in experiment [1] came to 42 nM; in experiment [2], 523 nM; in experiment [3], 1000 nM; in experiment [4], 6 nM; in experiment [5], 3300 nM.
For the molecule `CCCOc1c(\C(C)=C(F)/C=C/C(C)=C/C(=O)O)cc2c(c1Br)C(C)(C)CC=C2C(C)C` [Compound A-173, (2E,4E,6E)-7-(4-Bromo-8-isopropyl-5,5-dimethyl-3-propoxy-5,6-dihydro-nahthalen-2-yl)-6-fluoro-3-methyl-octa-2,4,6-trienoic acid], the Kd (commonly the constant that tells how readily two partners part at equilibrium) in experiment [1] was 11 nM; in experiment [2] it was 91 nM; in experiment [3], 192 nM; in experiment [4], 2 nM; in experiment [5], 810 nM. In addition, the EC50 (usually the concentration needed to bring the measured effect to its halfway point) in experiment [6] (holoreceptor transactivation, read-out: RXR Trans. EC50 α) turned out to be 1 nM. For the same molecule, the Emax in experiment [6] (percentage compared to the standard compound, read-out: RXR Trans. efficacy (number in parentheses) α) was 5%.
In the case of `CC(/C=C/C(F)=C(/C)c1cc2c(c(Br)c1OC(C)C)C(C)(C)CC=C2C(C)(C)C)=C\C(=O)O` [Compound A-175, (2E,4E,6E)-7-(4 Bromo-8-tert-butyl-3-isopropoxy-5,5-dimethyl-5,6 dihydro-naphthalen-2-yl)-6-fluoro-3-methyl-octa-2,4,6-trienoic acid], the Kd was 31 nM in experiment [1]; 458 nM in experiment [2]; 280 nM in experiment [3]; 9 nM in experiment [4]; 866 nM in experiment [5].
Regarding `CCOc1cc2c(cc1\C(C)=C/C=C/C(C)=C/C(=O)O)C(C(C)C)=CC(C)(C)O2` [Compound 47, 7-(7-Ethoxy-4-isopropyl-2,2-dimethyl-2H-chromen-6-yl)-3-methyl-octa-2E,4E,6Z-trienoic acid], the Ki is 150 nM in experiment [1], above 10000 nM in experiment [2], 3900 nM in experiment [3] and 15 nM in experiment [4]. The half-maximal effective concentration (EC50) in experiment [7] (holoreceptor transactivation, read-out: RXR Trans. EC50 β) worked out at 288 nM. The “RXR Trans. efficacy (number in parentheses) β” value in experiment [7] (percentage compared to the standard compound) was determined as 6%.
In the case of `CCCOc1cc2c(cc1\C(C)=C(F)/C=C/C(C)=C/C(=O)O)C(C(C)C)=CC(C)(C)O2` [Compound 125, (2E,4E,6E) 6-Fluoro-7-(4-isopropyl-2,2-dimethyl-7-propoxy-2H-chromen-6-yl)-3-methyl-octa-2,4,6-trienoic acid], the Ki in experiment [1] came out at 73 nM; in experiment [2] it was 12 nM; in experiment [3], 3 nM; in experiment [4] it was 8 nM; in experiment [5], 43 nM.
For `CCCCOc1cc2c(cc1\C(C)=C(F)/C=C/C(C)=C/C(=O)O)C(C(C)C)=CC(C)(C)O2` [Compound 126, (2E,4E,6E)-7-(7-Butoxy-4-isopropyl-2,2-dimethyl-2H-chromen-6-yl)-6-fluoro-3-methyl-octa-2,4,6-trienoic acid], the Ki in experiment [1] was determined as 59 nM; in experiment [2] it was 860 nM; in experiment [3], 522 nM; in experiment [4], 8 nM; in experiment [5], 3000 nM.

Values taken from US6887896B1, “7-[(7-Alkoxy)-chrom-3-en-6-yl]-heptatrienoic acid and 7-[(3-alkoxy)-5,6-dihydronaphthalen-2-yl]-heptatrienoic acid derivatives having serum glucose reducing activity” (Allergan, Inc., priority 2003, dated 2005).
